For experiment [1], the system named is Haemonchus contortus. Description: Nematocidal activity against Haemonchus contortus. The experiment is classed as functional.
The test system of another experiment is Saccharomyces cerevisiae. Description: Antifungal activity against Saccharomyces cerevisiae. The experiment is classed as functional.
In the next experiment the test system is Escherichia coli. Description: Antibacterial activity against Escherichia coli. The experiment is classed as functional, organism-based.
Another experiment concerns Bacillus subtilis. Description: Antibacterial activity against Bacillus subtilis. The experiment is classed as functional, organism-based.
Experiment [2] relates to Haemonchus contortus. Put plainly: Nematocidal activity against Haemonchus contortus assessed as inhibition of larval development at L1 stage at high concentration. The experiment is classed as functional, organism-based.

The structures appear in SMILES notation. Activity calls are given as the source filed them. The rule behind the calls is not given here.

Experimental findings from ChEMBL document CHEMBL1150840, “Onnamide F: a new nematocide from a southern Australian marine sponge, Trachycladus laevispirulifer” (2001) are described below.

As to `C=C1C[C@](OC)([C@H](O)C(=O)N[C@@H](OC)[C@@H]2C[C@@H](OC)C(C)(C)[C@@H](CC(O)CCC/C=C/C=C/C(=O)OC)O2)O[C@H](C)[C@@H]1C` (some centres not stated) [ONNAMIDE F METHYL ESTER], the figures for the LD99 in the experiment with Haemonchus contortus [1] and in the experiment on Saccharomyces cerevisiae were 2.6 µg/mL and 5.2 µg/mL, respectively.

Take `C=C1C[C@](OC)([C@H](O)C(=O)N[C@@H](OC)[C@@H]2C[C@@H](OC)C(C)(C)[C@@H](CC(O)CCC/C=C/C=C/C(=O)O)O2)O[C@H](C)[C@@H]1C` (some centres not stated) [ONNAMIDE F]: the results for the LD99 in the experiment on Haemonchus contortus [1] and in the experiment on Saccharomyces cerevisiae were 5.2 µg/mL and 1.4 µg/mL, respectively. Further, the outcome in the experiment on Escherichia coli and with Bacillus subtilis was inactive. In the experiment on Haemonchus contortus [2], the inhibition result was “Active”.
